Values quoted from earlier work in publication PMC6154651 (Molecules : A Journal of Synthetic Chemistry and Natural …, 2017).

Key:
FXR [1] = conditions: HepG2 cells
[2] = test system: FXR-LBD (ligand binding domain)
obstructive cholestasis = conditions: bile duct-ligated mice
LCA-induced cholestasis = conditions: mice, low dose 20 mg/kg
FXR [3] = test system: FXR; design: method as in PMID 16626693

CC1(C)CC[C@]2(C(=O)O)CC[C@]3(C)C(=CC[C@@H]4[C@@]5(C)CC[C@H](O)C(C)(C)[C@@H]5CC[C@]43C)[C@@H]2C1 [Compound 1, oleanolic acid]
CDCA induction of bile salt export protein (BSEP) (FXR [1]; 25 μM): partially blocked
expression of organic solute transporter (OST-β) (FXR [1]; 25 μM): did not affect
expression levels of cholesterol 7α-hydroxylase (CYP7A1) (FXR [1]): suppressed
expression of short heterodimer partner (SHP) (FXR [1]): slightly enhanced
activity of FXR-LBD induced by CDCA [2]: dose-dependently suppressed
effect on obstructive cholestasis (obstructive cholestasis): attenuate obstructive cholestasis
protection against LCA-induced cholestasis (LCA-induced cholestasis): could protect

C[C@@H]1O[C@@H](O[C@H]2[C@H](OC(=O)[C@]34CCC(C)(C)C[C@H]3C3=CC[C@@H]5[C@@]6(C)C[C@H](O)[C@H](O[C@@H]7O[C@H](CO)[C@@H](O)[C@H](O)[C@H]7O)C(CO)(CO)[C@@H]6CC[C@@]5(C)[C@]3(C)C[C@H]4O)OC[C@H](O)[C@@H]2O)[C@H](O)[C@H](O)[C@H]1O[C@@H]1OC[C@@H](O)[C@H](O[C@@H]2OC[C@](O)(CO)[C@H]2O)[C@H]1O [platycodin D]
activity on FXR (FXR [3]): weak activity

CC1(C)CCC2(C(=O)O)CCC3(C)C(=CCC4C5(C)CCC(OC(=O)c6ccccc6C(=O)O)C(C)(C)C5CCC43C)C2C1 (stereo not drawn) [NPLC441, 3-β-(2-carboxybenzoyloxy)-oleanolic acid]
binding to retinoid X receptor-LBD (retinoid X receptor-LBD): bound strongly
